The values that follow come from publication PMC6437697 (Journal of Medicinal Chemistry, 2019).

SMILES strings stand for the structures.

Assay in all cases: KINOMEscan
Common to all, as to format: binding
What all share (conditions): read-out: % control activity remaining

One test addresses T1, HIPK1 (Homo sapiens, UniProt Q86Z02).
T1 construct: purchased Eurofins DiscoverX KINOMEscan

The target in the next test is T2, MEK4 (Homo sapiens, UniProt P45985).
T2 construct: purchased Eurofins DiscoverX KINOMEscan
T2 sequence (P45985 1-399): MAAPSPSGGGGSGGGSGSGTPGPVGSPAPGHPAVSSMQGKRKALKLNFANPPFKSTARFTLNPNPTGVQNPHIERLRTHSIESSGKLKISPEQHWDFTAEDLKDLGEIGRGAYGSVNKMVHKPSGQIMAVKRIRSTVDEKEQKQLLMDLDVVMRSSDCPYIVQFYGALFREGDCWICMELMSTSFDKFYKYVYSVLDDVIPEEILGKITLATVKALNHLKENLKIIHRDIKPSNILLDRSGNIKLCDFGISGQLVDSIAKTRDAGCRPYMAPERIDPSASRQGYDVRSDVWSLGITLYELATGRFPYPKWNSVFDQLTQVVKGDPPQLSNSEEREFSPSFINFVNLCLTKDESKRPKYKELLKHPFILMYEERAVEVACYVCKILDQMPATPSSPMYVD

The target of a further test is T3, LTK (Homo sapiens, UniProt P29376).
T3 construct: purchased Eurofins DiscoverX KINOMEscan

Another test addresses T4, EPHB3 (Homo sapiens, UniProt P54753).
T4 construct: purchased Eurofins DiscoverX KINOMEscan
T4 sequence (P54753 34-998): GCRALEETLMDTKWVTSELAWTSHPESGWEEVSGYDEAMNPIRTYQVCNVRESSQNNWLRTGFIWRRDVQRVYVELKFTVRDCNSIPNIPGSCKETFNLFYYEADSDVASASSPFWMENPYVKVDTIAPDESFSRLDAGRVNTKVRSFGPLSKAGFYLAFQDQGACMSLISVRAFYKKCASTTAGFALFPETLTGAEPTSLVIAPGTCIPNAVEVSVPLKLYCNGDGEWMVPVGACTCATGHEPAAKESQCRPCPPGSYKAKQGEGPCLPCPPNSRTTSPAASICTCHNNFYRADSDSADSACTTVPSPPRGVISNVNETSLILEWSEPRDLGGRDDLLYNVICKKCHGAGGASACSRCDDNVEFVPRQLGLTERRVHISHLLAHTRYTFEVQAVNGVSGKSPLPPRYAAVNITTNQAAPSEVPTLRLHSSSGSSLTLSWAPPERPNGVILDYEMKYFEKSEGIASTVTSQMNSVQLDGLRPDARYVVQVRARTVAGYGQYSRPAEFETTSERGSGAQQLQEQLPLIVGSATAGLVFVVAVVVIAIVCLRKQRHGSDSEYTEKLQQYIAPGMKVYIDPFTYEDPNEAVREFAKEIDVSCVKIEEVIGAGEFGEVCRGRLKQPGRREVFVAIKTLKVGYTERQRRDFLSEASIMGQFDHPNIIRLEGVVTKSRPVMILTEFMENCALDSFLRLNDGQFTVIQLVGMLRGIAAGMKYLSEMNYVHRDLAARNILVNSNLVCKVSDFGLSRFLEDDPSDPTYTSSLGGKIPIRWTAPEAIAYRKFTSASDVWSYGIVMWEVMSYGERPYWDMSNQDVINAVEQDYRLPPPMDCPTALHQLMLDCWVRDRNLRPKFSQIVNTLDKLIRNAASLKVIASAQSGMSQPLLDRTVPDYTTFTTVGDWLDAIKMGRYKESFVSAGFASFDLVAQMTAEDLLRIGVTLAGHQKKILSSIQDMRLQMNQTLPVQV

The next test has as its target T5, DYRK2 (Homo sapiens, UniProt Q92630).
T5 construct: purchased Eurofins DiscoverX KINOMEscan
T5 sequence (Q92630 1-601): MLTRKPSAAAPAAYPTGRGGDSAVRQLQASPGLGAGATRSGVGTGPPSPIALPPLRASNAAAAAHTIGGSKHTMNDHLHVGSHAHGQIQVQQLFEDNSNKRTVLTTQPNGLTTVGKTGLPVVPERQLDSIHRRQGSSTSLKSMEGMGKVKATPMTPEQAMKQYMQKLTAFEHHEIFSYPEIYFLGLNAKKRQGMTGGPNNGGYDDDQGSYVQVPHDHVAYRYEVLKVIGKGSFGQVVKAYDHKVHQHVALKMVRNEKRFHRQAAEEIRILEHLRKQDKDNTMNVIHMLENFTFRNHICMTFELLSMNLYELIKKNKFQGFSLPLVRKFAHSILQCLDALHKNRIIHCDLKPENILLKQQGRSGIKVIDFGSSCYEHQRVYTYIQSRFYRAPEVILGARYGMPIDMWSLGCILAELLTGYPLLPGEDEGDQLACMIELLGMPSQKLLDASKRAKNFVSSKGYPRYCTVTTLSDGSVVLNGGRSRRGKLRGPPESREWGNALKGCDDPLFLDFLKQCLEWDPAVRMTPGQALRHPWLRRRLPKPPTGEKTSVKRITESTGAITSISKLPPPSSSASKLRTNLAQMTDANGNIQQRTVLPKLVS

The target in a further test is T6, MAP4K2 (Homo sapiens, UniProt Q12851).
T6 construct: purchased Eurofins DiscoverX KINOMEscan
T6 sequence (Q12851 1-820): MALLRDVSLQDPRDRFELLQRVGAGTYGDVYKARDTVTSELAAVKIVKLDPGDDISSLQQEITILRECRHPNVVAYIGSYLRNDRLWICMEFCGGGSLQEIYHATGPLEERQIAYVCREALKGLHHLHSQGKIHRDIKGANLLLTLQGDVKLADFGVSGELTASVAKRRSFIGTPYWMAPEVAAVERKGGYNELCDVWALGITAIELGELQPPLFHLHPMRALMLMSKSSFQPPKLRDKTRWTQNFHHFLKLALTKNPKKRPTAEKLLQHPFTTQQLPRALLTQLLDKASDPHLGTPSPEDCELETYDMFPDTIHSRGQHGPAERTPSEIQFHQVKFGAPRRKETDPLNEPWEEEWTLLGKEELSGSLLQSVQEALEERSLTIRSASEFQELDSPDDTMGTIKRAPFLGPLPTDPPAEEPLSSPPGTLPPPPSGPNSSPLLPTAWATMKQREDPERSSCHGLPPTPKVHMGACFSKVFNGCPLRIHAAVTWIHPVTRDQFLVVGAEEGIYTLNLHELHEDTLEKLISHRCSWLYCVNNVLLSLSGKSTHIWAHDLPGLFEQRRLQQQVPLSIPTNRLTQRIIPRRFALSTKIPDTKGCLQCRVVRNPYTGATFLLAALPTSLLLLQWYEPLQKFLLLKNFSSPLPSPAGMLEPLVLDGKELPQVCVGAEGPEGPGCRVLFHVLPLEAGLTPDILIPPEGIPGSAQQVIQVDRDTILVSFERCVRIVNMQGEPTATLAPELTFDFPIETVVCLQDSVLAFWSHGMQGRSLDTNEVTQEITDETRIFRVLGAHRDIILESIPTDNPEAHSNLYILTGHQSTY

T3 sequence (P29376 17-864): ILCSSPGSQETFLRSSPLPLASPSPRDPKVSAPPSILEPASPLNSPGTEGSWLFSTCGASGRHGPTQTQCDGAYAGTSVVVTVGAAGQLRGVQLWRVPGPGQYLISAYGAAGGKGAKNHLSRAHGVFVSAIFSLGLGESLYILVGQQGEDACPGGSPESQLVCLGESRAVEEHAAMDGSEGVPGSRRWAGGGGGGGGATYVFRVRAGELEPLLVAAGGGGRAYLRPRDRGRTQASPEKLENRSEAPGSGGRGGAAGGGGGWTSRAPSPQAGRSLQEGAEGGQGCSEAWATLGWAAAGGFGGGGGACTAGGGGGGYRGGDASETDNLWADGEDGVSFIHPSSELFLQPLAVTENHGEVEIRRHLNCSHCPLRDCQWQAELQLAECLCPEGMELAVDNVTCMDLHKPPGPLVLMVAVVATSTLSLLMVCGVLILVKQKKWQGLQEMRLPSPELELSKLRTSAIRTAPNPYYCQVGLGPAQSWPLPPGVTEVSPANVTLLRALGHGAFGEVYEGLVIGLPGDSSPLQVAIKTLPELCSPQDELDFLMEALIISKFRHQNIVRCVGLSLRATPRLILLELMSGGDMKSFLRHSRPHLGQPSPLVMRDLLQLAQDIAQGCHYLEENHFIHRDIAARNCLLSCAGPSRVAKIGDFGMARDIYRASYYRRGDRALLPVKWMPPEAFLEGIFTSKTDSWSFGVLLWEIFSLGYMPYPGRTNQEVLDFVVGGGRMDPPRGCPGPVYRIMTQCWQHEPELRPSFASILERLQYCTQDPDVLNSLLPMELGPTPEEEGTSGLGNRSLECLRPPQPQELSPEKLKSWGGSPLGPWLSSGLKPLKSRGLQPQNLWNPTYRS
T1 sequence (Q86Z02 whole entry): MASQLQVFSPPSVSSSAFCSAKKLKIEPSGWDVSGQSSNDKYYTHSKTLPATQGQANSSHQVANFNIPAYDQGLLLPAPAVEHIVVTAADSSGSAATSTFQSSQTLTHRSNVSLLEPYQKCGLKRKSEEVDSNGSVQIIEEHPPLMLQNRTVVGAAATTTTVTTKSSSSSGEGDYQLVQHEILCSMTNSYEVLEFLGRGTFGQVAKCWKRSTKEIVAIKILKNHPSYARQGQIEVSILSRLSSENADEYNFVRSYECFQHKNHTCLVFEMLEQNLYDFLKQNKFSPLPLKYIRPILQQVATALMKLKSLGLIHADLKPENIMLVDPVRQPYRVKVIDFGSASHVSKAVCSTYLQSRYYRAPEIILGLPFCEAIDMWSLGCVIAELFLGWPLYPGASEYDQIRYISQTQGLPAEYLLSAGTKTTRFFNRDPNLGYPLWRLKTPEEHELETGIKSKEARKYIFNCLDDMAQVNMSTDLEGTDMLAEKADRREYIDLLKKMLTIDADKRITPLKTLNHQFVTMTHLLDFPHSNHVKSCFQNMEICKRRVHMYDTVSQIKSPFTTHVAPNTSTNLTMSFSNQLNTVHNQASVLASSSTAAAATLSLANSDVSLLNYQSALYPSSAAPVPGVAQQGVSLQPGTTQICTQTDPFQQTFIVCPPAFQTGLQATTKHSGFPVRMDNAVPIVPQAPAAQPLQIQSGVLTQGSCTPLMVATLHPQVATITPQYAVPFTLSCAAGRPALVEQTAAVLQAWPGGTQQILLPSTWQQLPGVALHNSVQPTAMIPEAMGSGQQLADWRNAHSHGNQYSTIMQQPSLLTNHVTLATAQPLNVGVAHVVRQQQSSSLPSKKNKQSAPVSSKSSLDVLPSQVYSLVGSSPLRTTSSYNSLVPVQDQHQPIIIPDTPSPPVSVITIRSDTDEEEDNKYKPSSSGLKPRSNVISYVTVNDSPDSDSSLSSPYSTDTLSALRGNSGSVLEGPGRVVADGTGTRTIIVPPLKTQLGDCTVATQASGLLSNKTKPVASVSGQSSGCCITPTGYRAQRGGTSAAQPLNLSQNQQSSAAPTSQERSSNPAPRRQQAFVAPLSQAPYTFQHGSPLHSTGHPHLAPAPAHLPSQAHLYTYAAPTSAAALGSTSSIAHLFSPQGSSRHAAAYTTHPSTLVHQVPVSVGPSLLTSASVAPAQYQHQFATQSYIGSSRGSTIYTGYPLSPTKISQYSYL

With `Clc1cc(NCC2CC2)c2ncc(-c3ccc4[nH]ncc4c3)n2n1` [compound 2, 6-Chloro-N-(cyclopropylmethyl)-3-(1H-indazol-5-yl)imidazo[1,2-b]pyridazin-8-amine], the remaining binding at 1 µM was 42% at HIPK1; 75% at MEK4; 100% at LTK; 82% on EPHB3; 28% on DYRK2; 99% at MAP4K2.
In the case of `O=C(CN1CCOCC1)N[C@H]1CC[C@H](Nc2cc(Cl)nn3c(-c4ccc5[nH]ncc5c4)cnc23)CC1` [compound 26], the remaining binding at 1 µM at HIPK1 was found to be 0.45%; on MEK4 it was 100%; at LTK, 88%; on EPHB3 it was 88%; on DYRK2 it was 8%; at MAP4K2 it was 76%.
`CN1CCC(CNc2cc(Cl)nn3c(-c4cc5nc(Nc6ccccc6)[nH]c5cc4F)cnc23)CC1` [compound 31, 6-Chloro-3-(6-fluoro-2-(phenylamino)-1H-benzo[d]imidazol-5-yl)-N-((1-methylpiperidin-4-yl)methyl)imidazo[1,2-b]pyridazin-8-amine]: the remaining binding at 1 µM at HIPK1 is 74%; at MEK4, 100%; on LTK, 88%; at EPHB3, 92%; on DYRK2, 99%; on MAP4K2, 85%.
